{
  "source": "patent EP0406297B1",
  "about": "“Medical use of neuropeptide Antagonist G” (IMPERIAL CANCER RESEARCH TECHNOLOGY LIMITED, priority 1988, dated 1996)",
  "key": {"vasopressin receptor": {"system": "vasopressin receptor", "conditions": "Swiss 3T3 cells; cited from earlier work"}, "[1]": {"system": "small cell lung cancer (SCLC) cell line", "assay": "growth in vitro of small cell lung cancer cell lines", "type": "cell-based", "protocol": "The ability of antagonists A, D and G to inhibit the growth in vitro of a small cell lung cancer (SCLC) cell line was tested. The cell lines used were • a) H69 and H128 from the ATCC in Maryland USA; • b) H209, H345 and H510A obtained from Dr. A. Gazdar at NCI, NIH, Maryland USA; • c) UCH25 from Dr. P. Beverley, University College, London, England."}, "Swiss 3T3 cells [2]": {"system": "Swiss 3T3 cells", "conditions": "for IC50: read-out: IC50 for inhibition of mitogenesis induced by bradykinin, 9.4 nM bradykinin, 1 µg/ml insulin"}, "Swiss 3T3 cells [3]": {"system": "Swiss 3T3 cells", "conditions": "cited from earlier work"}, "SCLC cell lines": {"system": "SCLC cell lines", "assay": "calcium mobilisation tests in SCLC cell lines", "type": "cell-based", "conditions": "20 µM", "protocol": "These responses can be blocked by 20 µM antagonist D in 3 of 3 lines tested (H69, H345, H510A) and by 20 µM antagonist G in H510A."}, "Swiss 3T3 cells [4]": {"system": "Swiss 3T3 cells", "assay": "GRP-induced DNA synthesis ([3H]thymidine incorporation) in quiescent Swiss 3T3 cells", "type": "cell-based, murine"}, "Swiss 3T3 cells [5]": {"system": "Swiss 3T3 cells", "assay": "vasopressin-stimulated DNA synthesis in Swiss 3T3 cells", "type": "cell-based, murine"}, "bombesin receptor": {"system": "bombesin receptor", "conditions": "Swiss 3T3 cells; cited from earlier work"}, "Swiss 3T3 cells [6]": {"system": "Swiss 3T3 cells", "conditions": "earlier patent application and references 10, 11; cited from earlier work"}, "Swiss 3T3 cells [7]": {"system": "Swiss 3T3 cells", "assay": "specificity: DNA synthesis with a variety of other mitogens in Swiss 3T3 cells", "type": "cell-based, murine"}},
  "note": "Residues, ends and D or L forms follow the SMILES beside them.",
  "data": [
    {"compound": "CC(C)C[C@H](NC(=O)[C@H](CC(C)C)NC(=O)[C@@H](Cc1c[nH]c2ccccc12)NC(=O)[C@H](Cc1ccccc1)NC(=O)[C@@H](Cc1c[nH]c2ccccc12)NC(=O)[C@H](CCC(N)=O)NC(=O)[C@H](CCC(N)=O)NC(=O)[C@@H]1CCCN1C(=O)[C@H](CCCCN)NC(=O)[C@H]1CCCN1C(=O)[C@H](N)CCCNC(=N)N)C(N)=O", "note": "[antagonist A, D-Arg-D-Pro-Lys-Pro-Gln-Gln-D-Trp-Phe-D-Trp-Leu-Leu-NH2] (HELM PEPTIDE1{[dR].[dP].K.P.Q.Q.[dW].F.[dW].L.L.[am]}$$$$V2.0)", "values": [
      {"measurement": "inhibition of [3H]vasopressin binding", "setting": "vasopressin receptor", "result": "inhibit"},
      {"measurement": "concentrations effective in inhibiting growth of SCLC", "setting": "[1]; H69, H82, H128, H417 and UCH25", "result": "50 to 150", "unit": "µM"},
      {"measurement": "cell lines in which growth inhibition was found, of cell lines tested", "setting": "[1]; SCLC cell lines", "result": "5 of 5"},
      {"measurement": "IC50", "setting": "Swiss 3T3 cells [2]", "result": 90, "unit": "µM"},
      {"measurement": "inhibition of vasopressin-stimulated DNA synthesis", "setting": "Swiss 3T3 cells [3]", "result": "inhibit"}
    ]},
    {"compound": "CSCC[C@H](NC(=O)[C@H](CC(C)C)NC(=O)[C@@H](Cc1c[nH]c2ccccc12)NC(=O)[C@H](Cc1ccccc1)N(C)C(=O)[C@@H](Cc1c[nH]c2ccccc12)NC(=O)[C@@H](N)CCCNC(=N)N)C(N)=O", "note": "[antagonist G, Arg.D-Trp.MePhe.D-Trp-Leu-Met-NH2] (HELM PEPTIDE1{R.[dW].[meF].[dW].L.M.[am]}$$$$V2.0)", "values": [
      {"measurement": "transient elevation of intracellular [Ca2+] in response to bradykinin, GRP and vasopressin", "setting": "SCLC cell lines; H510A", "result": "blocked"},
      {"measurement": "inhibition of growth in SCLC cells, compared with antagonist D", "setting": "[1]; H69, H209, H345 and H510A", "result": "equipotent with antagonist D"},
      {"measurement": "cell lines in which growth inhibition was found, of cell lines tested", "setting": "[1]; SCLC cell lines", "result": "4 of 4"},
      {"measurement": "potency as antagonist of growth induced by bradykinin, compared with Antagonist D", "setting": "Swiss 3T3 cells [2]; Swiss 3T3 cells", "result": "less potent"},
      {"measurement": "potency as antagonist of growth induced by GRP, compared with Antagonist D", "setting": "Swiss 3T3 cells [4]", "result": "less potent"},
      {"measurement": "potency as antagonist of vasopressin induced cell growth, compared with Antagonist D", "setting": "Swiss 3T3 cells [5]; Swiss 3T3 cells", "result": "as potent as Antagonist D"}
    ]},
    {"compound": "Arg-Pro-Lys-Pro-Gln-Gln-Phe-Phe-Gly-Leu-Met-NH2 [substance P]", "values": [
      {"measurement": "binding of [125I]GRP", "setting": "bombesin receptor", "result": "neither inhibits"}
    ]},
    {"compound": "CC(C)C[C@H](NC(=O)[C@H](CC(C)C)NC(=O)[C@@H](Cc1c[nH]c2ccccc12)NC(=O)[C@H](Cc1ccccc1)NC(=O)[C@@H](Cc1c[nH]c2ccccc12)NC(=O)[C@H](CCC(N)=O)NC(=O)[C@@H](Cc1ccccc1)NC(=O)[C@@H]1CCCN1C(=O)[C@H](CCCCN)NC(=O)[C@@H]1CCCN1C(=O)[C@H](N)CCCNC(=N)N)C(N)=O", "note": "[antagonist D, D-Arg-Pro-Lys-Pro-D-Phe-Gln-D-Trp-Phe-D-Trp-Leu-Leu-NH2] (HELM PEPTIDE1{[dR].P.K.P.[dF].Q.[dW].F.[dW].L.L.[am]}$$$$V2.0)", "values": [
      {"measurement": "SCLC lines in which the Ca2+ responses were blocked, of lines tested", "setting": "SCLC cell lines", "result": "3 of 3"},
      {"measurement": "transient elevation of intracellular [Ca2+] in response to bradykinin, GRP and vasopressin", "setting": "SCLC cell lines; H69, H345, H510A", "result": "blocked"},
      {"measurement": "potency as bombesin antagonist relative to antagonist A", "setting": "Swiss 3T3 cells [6]", "result": "5-10 fold"},
      {"measurement": "inhibition of [3H]vasopressin binding", "setting": "vasopressin receptor", "result": "inhibit"},
      {"measurement": "potency in inhibiting growth of SCLC relative to Antagonist A", "setting": "[1]", "result": "5-10 fold"},
      {"measurement": "cell lines in which growth inhibition was found, of cell lines tested", "setting": "[1]; SCLC cell lines", "result": "6 of 6"},
      {"measurement": "concentration that abolishes cell growth", "setting": "[1]; SCLC cell lines", "result": "40 to 50", "unit": "µM"},
      {"measurement": "IC50", "setting": "Swiss 3T3 cells [2]", "result": 8.3, "unit": "µM"},
      {"measurement": "inhibition of vasopressin-stimulated DNA synthesis", "setting": "Swiss 3T3 cells [3]", "result": "inhibit"},
      {"measurement": "inhibition of mitogenesis stimulated by EGF, PDGF, phorbol dibutyrate, cholera toxin and 8-bromo-cAMP", "setting": "Swiss 3T3 cells [7]", "result": "Neither of them inhibited"},
      {"measurement": "effect against various bombesin-like peptides (DNA synthesis)", "setting": "Swiss 3T3 cells [7]; GRP 3.6 nM, bombesin 1.2 nM, litorin 1.8 nM, 20 µM antagonist D or 1 µM LψLB", "result": "effective"},
      {"measurement": "inhibition of mitogenesis stimulated by VIP", "setting": "Swiss 3T3 cells [7]; VIP 3.0 nM, 20 µM antagonist D or 1 µM LψLB", "result": "Neither antagonist D nor [Leu^13-ψ(CH2NH)Leu^14]bombesin inhibited"},
      {"measurement": "increase in potency against each mitogen relative to antagonist A", "setting": "Swiss 3T3 cells [7]; mitogens bombesin/GRP, bradykinin, vasopressin", "result": "5-10 fold"},
      {"measurement": "inhibition of vasopressin-induced DNA synthesis", "setting": "Swiss 3T3 cells [5]; 20 µM antagonist D, LψLB at concentrations that strongly inhibited GRP-induced mitogenesis (1 µM)", "result": "potent inhibitor"}
    ]}
  ]
}
